In patent EP0359821A1, “METHOD OF STERILIZING PLANT ANTHERS” (priority 1988, dated 1989):
Where two headings read alike, the source gives them in different places.

Legend:
[1] = test system: Diploider Roggen Sorte Gibrid 1864/74; assay: Field trial of gametocidal activity, diploid rye Gibrid 1864/74; details: 1% aqueous emulsion, 10 kg/ha
[2] = test system: Winterweizens Sorte Mironovskaya 808; assay: Field trial of gametocidal activity (anther sterilisation), winter wheat; type: in vivo, Weizen; details: 2% aqueous emulsion, 20 kg/ha; for response vs control in vivo at 20000 g/ha: control = 100, read-out: Prozentsatz des Ansetzens bei freier Bestäubung
[3] = test system: Hirse Sorte Mironovskoe 94; assay: Field trial of gametocidal activity, millet Mironovskoe 94; type: in vivo; details: 1% aqueous emulsion, 10 kg/ha; for Anzahl von Körnern der Rispe bei freier Bestäubung / Anzahl von Körnern der Rispe im Isolator / percent pollen sterility at 10000 g/ha: V. or VI. period; for percent pollen sterility at 10000 g/ha: read-out: Prozentsatz der Sterilität; for response vs control in vivo at 10000 g/ha: control = 100, read-out: Prozentsatz des Ansetzens bei freier Bestäubung
[4] = test system: Hirse Sorte K-9693 Kormovoe 1; assay: Field trial of gametocidal activity, millet K-9693 Kormovoe 1; details: 1% aqueous emulsion, 10 kg/ha
[5] = in vivo; details: mouse
[6] = test system: Tritikale Sorte PRAG I09; assay: Field trial of gametocidal activity, triticale; type: in vivo; details: 1% aqueous emulsion, 12 kg/ha; for Prozentsatz des Ansetzens bei freier Bestäubung: control = 100
Description: (§1) Bei Weizen und Tritikale werden Einzelisolatoren verwendet.
Pflanzen von Tritikale Sorte PRAG I09 werden in der V. und VI.
Der Verbrauch an Sterilisationsmittel beträgt 12 kg/ha.

[7] = test system: Tetraploider Roggen Sorte Belta; assay: Field trial of gametocidal activity, tetraploid rye Belta; type: in vivo; details: 1% aqueous emulsion, 10 kg/ha; for response vs control in vivo at 10000 g/ha: control = 100, read-out: Prozentsatz des Ansetzens bei freier Bestäubung
[8] = test system: Diploider Roggen Sorte Chulpan; assay: Field trial of gametocidal activity, diploid rye Chulpan; type: in vivo; details: for Anzahl von Körnern der Ähre bei freier Bestäubung / Anzahl von Körnern der Ähre im Isolator / percent sterility at 10000 g/ha: Chulpan, V. or VI. period
Description: as §1
Pflanzen von diploidem Roggen Sorte Chulpan werden in der V. oder VI.
Der Verbrauch an Sterilisationsmitteln beträgt 10 kg/ha.

[9] = test system: Sommerweizen Sorte Moskovskaya 35; assay: Field trial of gametocidal activity, spring wheat; type: in vivo, Weizen; details: 1% aqueous emulsion; for Anzahl von Körnern der Ähre bei freier Bestäubung / Anzahl von Körnern der Ähre im Isolator / percent sterility at 10000 g/ha / response vs control in vivo at 10000 g/ha: 10 kg/ha; for Anzahl von Körnern der Ähre bei freier Bestäubung / Anzahl von Körnern der Ähre im Isolator / percent sterility at 10000 g/ha: V. period; for percent sterility at 10000 g/ha: read-out: Prozentsatz der Sterilität; for response vs control in vivo / response vs control in vivo at 10000 g/ha: control = 100, read-out: Prozentsatz des Ansetzens bei freier Bestäubung
[10] = test system: Sonnenblume Sorte Peredovik; assay: Field trial of pollen sterilisation, sunflower Peredovik; type: in vivo; details: 0,2% aqueous emulsion, 1,2 kg/ke (so in the source)
Description: Pflanzen der Sonnenblume Sorte Peredovik werden in der V. oder VI.
Der Verbrauch an Sterilisationsmittel beträgt 1,2 kg/ke.

[11] = test system: Tetraploider Roggen Sorte Ukrainskaya tetra; assay: Field trial of gametocidal activity, tetraploid rye Ukrainskaya tetra; type: in vivo; details: 1% aqueous emulsion, 10 kg/ha; for Anzahl von Körnern der Ähre bei freier Bestäubung / Anzahl von Körnern der Ähre im Isolator / Prozentsatz der Sterilität: V. or VI. period; for Prozentsatz des Ansetzens bei freier Bestäubung: control = 100
[12] = test system: Sonnenblume Linie VK 119; assay: Field trial of pollen sterilisation, sunflower line VK 119; details: 0,2% aqueous emulsion, 1,2 kg/ha
[13] = test system: Tetraploider Roggen Sorte Gibrid 67; assay: Field trial of gametocidal activity, tetraploid rye Gibrid 67; type: in vivo; details: 1% aqueous emulsion, 10 kg/ha; for Anzahl von Körnern der Ähre bei freier Bestäubung / Anzahl von Körnern der Ähre im Isolator: V. or VI. period
Description: as §1
Pflanzen von tetraploidem Roggen Sorte Gibrid 67 werden in der V. oder VI.

[14] = test system: Roggen Sorte Voskhod 2; assay: Field trial of gametocidal activity, diploid rye Voskhod 2; type: in vivo; details: 1% aqueous emulsion, 8 kg/ha
[15] = test system: Tetraploider Roggen Sorte Jubileinaya; assay: Field trial of gametocidal activity, tetraploid rye Jubileinaya; details: 1% aqueous emulsion, 10 kg/ha; for Prozentsatz des Ansetzens bei freier Bestäubung: control = 100
[16] = test system: Diploider Roggen Sorte Kharkovskaya 55; assay: Field trial of gametocidal activity, diploid rye Kharkovskaya 55; details: 1% aqueous emulsion, 6 kg/ha
[17] = V. or VI. period of organogenesis
[18] = single compounds, 1% aqueous emulsion, 10 kg/ha
[19] = single compounds, 1% aqueous emulsion, 10 kg/ha, read-out: Prozentsatz der Sterilität
[20] = read-out: Prozentsatz des Ansetzens bei freier Bestäubung, Chulpan, single compounds, 1% aqueous emulsion, 10 kg/ha, control = 100

Row | SMILES | Anzahl von Körnern der Ähre bei freier Bestäubung [2, 17] | Anzahl von Körnern der Ähre im Isolator [2, 17] | response vs control in vivo at 20000 g/ha [2] | Anzahl von Körnern der Rispe bei freier Bestäubung [3] | Anzahl von Körnern der Rispe im Isolator [3] | percent pollen sterility at 10000 g/ha [3] | response vs control in vivo at 10000 g/ha [3] | Anzahl von Körnern der Ähre im Isolator ([7]; V. or VI. period) | Anzahl von Körnern der Ähre bei freier Bestäubung [8, 18] | Anzahl von Körnern der Ähre im Isolator [8, 18] | percent sterility at 10000 g/ha [8, 19] | response vs control in vivo at 10000 g/ha [8, 20] | Anzahl von Körnern der Ähre bei freier Bestäubung [9] | Anzahl von Körnern der Ähre im Isolator [9] | percent sterility at 10000 g/ha [9] | also measured
1 | OCCOc1ccc(F)cc1 [Beispiel 2] | 27,4 | 0,0 | 67.7% | 311,4 | 0,0 | 100% | 82% | 0,0 | 48,2 | 0,0 | 100% | 85% |  |  |  | Anzahl von Körnern der Ähre bei freier Bestäubung ([1]; V. period): 42,0; Anzahl von Körnern der Ähre im Isolator ([1]; V. period): 0,0; Prozentsatz der Sterilität ([1]; V. period): 100%; Prozentsatz des Ansetzens bei freier Bestäubung ([1]; control = 100): 87,9%; Anzahl von Körnern der Rispe bei freier Bestäubung ([4]; V. or VI. period): 128,7; Anzahl von Körnern der Rispe im Isolator ([4]; V. or VI. period): 0,0; Prozentsatz der Sterilität ([4]; V. or VI. period): 100%; Prozentsatz des Ansetzens bei freier Bestäubung ([4]; control = 100): 87,7%; LD50 ([5]; LD50, weisse Mäuse): 350 mg/kg; Anzahl von Körnern der Ähre bei freier Bestäubung ([6]; V. and VI. period): 62,3; Anzahl von Körnern der Ähre im Isolator ([6]; V. and VI. period): 0,0; Prozentsatz des Ansetzens bei freier Bestäubung [6]: 90,3%; response vs control in vivo at 10000 g/ha [7]: 92.8%
2 | OCC(O)COc1ccc(Cl)cc1 (stereo not drawn) [Beispiel 3, 3-(4'-Chlorphenoxy)-propandiol-1,2] | 28,6 | 0,6 | 70.6% | 284,7 | 0,0 | 100% | 75% |  | 47,2 | 0,0 | 100% | 83.2% | 25,8 | 0,0 | 100% | response vs control in vivo [9]: 93.8%; Pollensterilität in % [10]: 100%; Ansetzen von Achänen bei freier Bestäubung in % ([10]; V. or VI. period): 81,7%; Ansetzen von Achänen im Isolator bei der Bestäubung mit dem Pollengemisch in % ([10]; V. or VI. period): 0,0%; Anzahl von Körnern der Ähre bei freier Bestäubung [11]: 40,7; Anzahl von Körnern der Ähre im Isolator [11]: 0,0; percent sterility at 20000 g/ha ([2]; V. or VI. period of organogenesis, read-out: Prozentsatz der Sterilität): 98.4%; Ansetzen von Achänen bei freier Bestäubung in % [12]: 84,4%; Ansetzen von Achänen im Isolator bei der Bestäubung mit dem Pollengemisch in % [12]: 0,0%; Pollensterilität in % [12]: 100%; Anzahl von Körnern der Ähre im Isolator ([6]; V. and VI. period): 0,0; Prozentsatz des Ansetzens bei freier Bestäubung [6]: 89,0%
3 | OCC(O)CSc1ccccc1F (stereo not drawn) [Beispiel 7, 3-(2'-Fluorphenylthio)-propandiol-I,2] | 36,7 | 0,0 | 90.6% | 300,5 | 0,0 | 100% | 79.2% |  | 53,4 | 0,6 | 98.8% | 94.2% | 24,6 | 0,0 | 100% | response vs control in vivo [9]: 89.5%; Anzahl von Körnern der Ähre bei freier Bestäubung [13]: 42,2; Anzahl von Körnern der Ähre im Isolator [13]: 0,0; Prozentsatz des Ansetzens bei freier Bestäubung ([13]; control = 100): 94,4%; LD50 ([5]; LD50, weisse Mäuse): 400 mg/kg
4 | O=C(O)c1cc(Br)ccc1O [Beispiel 18, Äthanolaminsalz der 5-Bromsalizylsäure] |  |  |  | 320,7 | 0,0 | 100% | 84.5% |  |  |  |  |  | 27,9 | 1,8 | 93.4% | response vs control in vivo at 10000 g/ha [9]: 102%; Prozentsatz der Sterilität [11]: 99,8%; Prozentsatz des Ansetzens bei freier Bestäubung [11]: 94,7%
5 | OCC(O)COc1ccccc1F (stereo not drawn) [Beispiel 21, 3-(2'-Fluorophenoxy)-propandiol-1,2] |  |  |  | 307,5 | 0,0 | 100% | 81% | 0,0 |  |  |  |  | 26,2 | 0,1 | 99.9% | response vs control in vivo at 10000 g/ha [9]: 95.3%; Anzahl von Körnern der Ähre bei freier Bestäubung ([14]; V. or VI. period): 46,8; Anzahl von Körnern der Ähre im Isolator ([14]; V. or VI. period): 0,3; Prozentsatz der Sterilität ([14]; V. or VI. period): 99,4%; Prozentsatz des Ansetzens bei freier Bestäubung ([14]; control = 100): 85,7%; Anzahl von Körnern der Ähre im Isolator ([15]; V. or VI. period): 0,0; Prozentsatz des Ansetzens bei freier Bestäubung [15]: 97,5%; Anzahl von Körnern der Ähre bei freier Bestäubung ([7]; V. or VI. period): 40,7
6 | O=C(O)c1ccccc1 [Beispiel 31, Äthanolaminsalz der Benzoesäure] |  |  |  |  |  |  |  |  |  |  |  |  |  |  |  | Anzahl von Körnern der Ähre bei freier Bestäubung ([16]; V. and VI. periods): 43,7; Anzahl von Körnern der Ähre im Isolator ([16]; V. and VI. periods): 0,9; Prozentsatz der Sterilität ([16]; V. and VI. periods): 97,9%; Prozentsatz des Ansetzens bei freier Bestäubung ([16]; control = 100): 96,9%; Anzahl von Körnern der Ähre bei freier Bestäubung [11]: 44,0; Anzahl von Körnern der Ähre im Isolator [11]: 0,8; Prozentsatz der Sterilität [11]: 98,2%; Prozentsatz des Ansetzens bei freier Bestäubung [11]: 99,5%; LD50 [5]: 4100 mg/kg
7 | O=C(O)c1ccccc1C(=O)O [Beispiel 55, Phthalsäuremonoäthanolaminsalz] |  |  |  | 350,9 | 0,0 | 100% | 92.5% | 0,3 | 55,6 | 3,1 |  |  |  |  |  | LD50 [5]: 1100 mg/kg; Anzahl von Körnern der Ähre bei freier Bestäubung ([15]; V. or VI. period): 46,0; Anzahl von Körnern der Ähre im Isolator ([15]; V. or VI. period): 0,0; Prozentsatz des Ansetzens bei freier Bestäubung [15]: 95,0%; Anzahl von Körnern der Ähre bei freier Bestäubung ([7]; V. or VI. period): 44,0; percent sterility at 10000 g/ha ([7]; V. or VI. period, read-out: Prozentsatz der Sterilität): 99.3%; response vs control in vivo at 10000 g/ha [7]: 99.3%; pest or weed control at 10000 g/ha ([8]; read-out: Prozentsatz der Sterilität): 94%; response vs control in vivo at 10000 g/ha ([8]; read-out: Prozentsatz des Ansetzens bei freier Bestäubung): 98.1%
8 | O=C(O)c1ccccc1O [Beispiel 62, Äthanolaminsalz der Salizylsäure] |  |  |  |  |  |  |  |  |  |  |  |  |  |  |  | Anzahl von Körnern der Ähre bei freier Bestäubung [13]: 40,8; Anzahl von Körnern der Ähre im Isolator [13]: 0,0
